Entries after “also recorded” stand apart in the source; their conditions may differ. Read-outs that look alike come from different tables or passages of the source.
What was measured:
[1] = tested on: AIDS; assay: AIDS infected and immunosuppressed individuals; type: in vivo, human
[2] = Acne vulgaris patients; type: in vivo, human
Text: A number of patients within the group patients afflicted with furunculitis, pyoderma, cellulitis, and folliculitis are afflicted with acne vulgaris and acne. […] The clinical outcome correlates with the correction of immunological indices, and relapses are controlled.
A number of patients within the group of 159 patients afflicted with furunculitis, pyoderma, cellulitis, and folliculitis were afflicted with acne vulgaris and acne. […] The clinical outcome correlated with the correction of immunological indices, and relapses were controlled.

[3] = Periapical granulomas; type: in vivo, human; conditions: 3 days
Experimental: Patients with periapical granulomas treated with Ile-Trp are tested.

[4] = Lymphangitis; type: in vivo, human
[5] = Sinus disease patients (Examples 14, 63); type: in vivo, human; conditions: 3-10 days
Text: The decrease of treatment duration up to 1.7 times compared to controls.

[6] = Chronic and acute ear infections; type: in vivo, human
[7] = Eye problems, with conventional treatment; type: in vivo, human
Experimental: Patients with various eye problems are treated by conventional methods, with one group receiving Ile-Trp in addition to the conventional treatment.

[8] = Symptom complexes: joint pain, muscle aches, fevers, chills (Examples 17, 66); type: in vivo, human
[9] = Bone-marrow compromise (transplant or radiation exposure); type: in vivo, human
[10] = Massive hemotransfusions in post-operative period; type: in vivo, human
Experimental: Patients exposed to massive hemotransfusions during post-operative period are treated with Ile-Trp. The peptide is administered starting from 4-6 day of post-operative period single daily IM or intranasally in doses 100 μg for 5 days.

[11] = Antibiotic-treated patients with unfavorable allergological history; type: in vivo, human
Experimental: Ile-Trp is applied in patients treated with antibiotics for various indications who have unfavorable allergological history. Ile-Trp is administered IM or intranasally single daily at 100 μg for 5-10 days.
Control group comprised 43 patients.

[12] = Patients subjected to skin grafting; type: in vivo, human
Experimental: Ile-Trp is administered to patients subjected to skin grafting. Ile-Trp is administered IM or intranasally single daily at 50-100 μg for 5 days.
The control group comprised 27 patients. […] In control group the manifestations of rejection were determined in 8 patients.

[13] = Wounds of various origin; type: in vivo, human
Experimental: Ile-Trp is used in patients with wounds of various origin, type and localization. Ile-Trp is administered IM or topically single daily at 100 μg for 10 days.
The control group comprised 24 patients.

[14] = Bone fractures; type: in vivo, human
Experimental: Ile-Trp is applied to patients with bone fractures of various origin, type and localization. Ile-Trp is administered intramuscularly or intranasally single daily at […] for 10 days.
The control group comprised 28 patients.

[15] = Cutaneous burns; type: in vivo, human
Experimental: Patients with cutaneous burns are treated with Ile-Trp either IM or intranasally.

[16] = Deformity and scarring after injuries; type: in vivo, human
[17] = Pregnant women (Examples 34, 87); type: in vivo, human
Experimental: Ile-Trp is administered to pregnant women. The route of administration is IM or intranasally 100 μg daily for 5-10 days.
The route of administration is IM or intranasally 100 μg daily for 5-10 days. […] It was also noted that there was a decrease in fetal hypoxia.

[18] = Pyelonephritis; type: in vivo, human
Text: The normal course of delivery in those women treated with IM862 was without complications.

[19] = tested on: leprosy; assay: Leprosy (Hansen's disease); type: in vivo, human
[20] = tested on: tropical malaria; assay: Relapsing tropical malaria; type: in vivo, human
Experimental: Patients are studied who have relapsing forms of tropical malaria, moderate to severe, and severe cases with 21 patients in the control group. Ile-Trp is administered at 100 μg single daily doses Im or intranasally for 5-10 days.
A total of 33 patients were studied with patients who had relapsing forms of tropical malaria, moderate to severe, and severe cases with 21 patients in the control group.

[21] = tested on: TB bacilli; type: in vivo, human; conditions: 5 doses
[22] = Bronchial asthma; type: in vivo, human
Text: Patients, children and adults, with bronchial asthma are studied. […] A significant reduction in bronchial obstruction and laryngotracheitis is noted.
A total of 37 patients, children and adults, with bronchial asthma and 28 similar patients as controls were studied. […] The significant reduction in bronchial obstruction and laryngotracheitis was noted. […] In some of the patients it was possible to avoid steroids in the conventional commitment treatment course. In the allowing year observation there was noted a decrease in the incidence of bronchial asthma 4.2 fold. In more than half of the patients the disappearance of drug and food allergy manifestations was noted.

[23] = tested on: Shigella
Text: A total 125 patients infected with Shigella dysentery are examined.
A total 125 patients with 53 patients for control infected with Shigella dysentery were examined.

Q: Which results are given for Glu-Trp [IM862]?
A: immunological indices ([1]; IM862, immunosuppressed individuals with radiation injuries): excellent restoration of immunological indices; comparison with TPI as cell mediator ([1]; IM862 vs TPI): far more effective cell mediator; immunological indices ([2]; IM862 group): corrected and normalized rapidly; clinical effect ([3]; IM862 100 μg instillation, 46 patients): accelerated arrestation of the inflammatory process; clinical effect ([4]; IM862 100 μg): controls the advance of lymphangitis; decrease of treatment duration compared to controls ([5]; IM862 1 μg/kg): up to 1.7 times; clinical effect ([5]; IM862 1 μg/kg, 51 patients): normalization of nasal breathing; clinical effect ([6]; IM862 with antibiotics): accelerated healing of chronic and acute ear infections; clinical effect ([7]; IM862 intra ocularly 18 μg 5 days or drops, 41 patients): more rapid arresting of the inflammatory process; clinical effect ([8]; IM862 100 μg 5-10 days, 156 patients): accelerated reduction in symptom complexes; clinical effect ([9]; IM862 IM or intranasally): improved immune parameters; alloblood rejection ([10]; IM862 100 μg 5 days, 76 patients): None of studies patients showed clinical manifestation of alloblood rejection; allergic reactions to antibiotics ([11]; IM862 100 μg 5-10 days, 76 patients, majority of cases): prevented the arising of allergic reactions; infectious complications and graft rejection ([12]; IM862 50-100 μg 5 days, all 17 patients): prevented the arising of infections complications and graft rejection; wound healing ([13]; IM862): speeded up; also recorded: accelerates wound healing; consolidation of fractures ([14]; IM862, 10 days, 44 patients): accelerated essentially; clinical effect ([15]; IM862 IM or intranasally, 23 patients): Accelerated wound healing, diminished frequency of infections, and less eschar; clinical effect ([16]; IM862 IM or intranasally): less deformity and scarring; clinical effect ([17]; IM862 100 μg daily 5-10 days, 34 women): resolution of weakness, dizziness, and increased appetite; clinical effect ([18]; IM862 100 μg 5-10 days with conventional therapy, 27 patients): reduction of fever; clinical effect ([19]; IM862 100 μg 5 days with conventional therapy, 45 patients): resolution of the lesions; clinical effect ([20]; IM862 100 μg 5-10 days, 33 patients): reduction of hepatolineal syndrome; clinical effect ([21]; IM862 50 to 100 μg every other day, 2 months after the course, 37 patients): disappearance of toxic symptoms; decrease in the incidence of bronchial asthma ([22]; IM862, following year observation): 4.2 fold; clinical effect ([22]; IM862 IM 1 μg/kg 5-10 days, 37 patients): less severe clinical symptoms; clinical effect ([23]; IM862 IM 100 μg 10 days, 125 patients): normalization of fever

Q: For Ile-Trp, which “immunologic indices, T-cell functional activity, T4/T8 ratios” value ([1]; Ile-Trp, AIDS infected individuals) is on record?
A: restoring normal immunologic indices

Q: And the immunological indices ([1]; Ile-Trp, immunosuppressed individuals with radiation injuries)?
A: excellent restoration of immunological indices

Q: What about the immunological indices ([2]; Ile-Trp group) of the same substance?
A: corrected and normalized rapidly

Q: And the clinical effect ([3]; Ile-Trp 100 μg instillation)?
A: accelerated arrestation of the inflammatory process

Q: What about the clinical effect ([4]; Ile-Trp 100 μg) of the same substance?
A: controls the advance of lymphangitis

Q: And the clinical effect ([5]; Ile-Trp 1 μg/kg)?
A: normalization of nasal breathing

Q: What about the clinical effect ([6]; Ile-Trp with antibiotics) of the same substance?
A: accelerated healing of chronic and acute ear infections

Q: What about the clinical effect ([7]; Ile-Trp intra ocularly 18 μg 5 days or drops) of the same substance?
A: more rapid arresting of the inflammatory process

Q: And the clinical effect ([8]; Ile-Trp 100 μg 5-10 days)?
A: accelerated reduction in symptom complexes

Q: And the clinical effect ([9]; Ile-Trp IM or intranasally)?
A: improved immune parameters

Q: What about the alloblood rejection ([10]; Ile-Trp 100 μg 5 days) of the same substance?
A: do not show clinical manifestation of alloblood rejection

Q: And the “allergic reactions to antibiotics” value ([11]; Ile-Trp 100 μg 5-10 days)?
A: prevents the arising of allergic reactions

Q: What about the “infectious complications and graft rejection” value ([12]; Ile-Trp 50-100 μg 5 days) of the same substance?
A: prevents the arising of infections complications and graft rejection

Q: And the wound healing ([13]; Ile-Trp)?
A: speeds up; also recorded: accelerates wound healing

Q: And the consolidation of fractures ([14]; Ile-Trp, 10 days)?
A: accelerates essentially

Q: And the clinical effect ([15]; Ile-Trp IM or intranasally)?
A: Accelerated wound healing, diminished frequency of infections, and less eschar

Q: What about the clinical effect ([16]; Ile-Trp IM or intranasally) of the same substance?
A: less deformity and scarring

Q: And the clinical effect ([17]; Ile-Trp 100 μg daily 5-10 days)?
A: resolution of weakness, dizziness, and increased appetite

Q: What about the clinical effect ([18]; Ile-Trp 100 μg 5-10 days with conventional therapy) of the same substance?
A: reduction of fever

Q: And the clinical effect ([19]; Ile-Trp 100 μg 5 days with conventional therapy)?
A: resolution of the lesions

Q: And the clinical effect ([20]; Ile-Trp 100 μg 5-10 days)?
A: reduction of hepatolineal syndrome

Q: What about the clinical effect ([21]; Ile-Trp 50 to 100 μg every other day, with conventional therapy) of the same substance?
A: disappearance of toxic symptoms

Q: And the clinical effect ([22]; Ile-Trp IM 1 μg/kg 5-10 days)?
A: less severe clinical symptoms

Q: And the clinical effect ([23]; Ile-Trp IM 100 μg 10 days)?
A: normalization of fever

From patent publication US20030198617A1, “Pharmaceutical tryptophan containing dipeptide compositions and methods of use thereof” (priority 1993, published 2003)
